Assay results from patent US20240383904A1, “HETEROCYCLIC COMPOUNDS” (Hoffmann-La Roche Inc., priority 2021, published 2024).

Target: T1, MAGL (Homo sapiens, UniProt Q99685)
T1 sequence (Q99685 1-303): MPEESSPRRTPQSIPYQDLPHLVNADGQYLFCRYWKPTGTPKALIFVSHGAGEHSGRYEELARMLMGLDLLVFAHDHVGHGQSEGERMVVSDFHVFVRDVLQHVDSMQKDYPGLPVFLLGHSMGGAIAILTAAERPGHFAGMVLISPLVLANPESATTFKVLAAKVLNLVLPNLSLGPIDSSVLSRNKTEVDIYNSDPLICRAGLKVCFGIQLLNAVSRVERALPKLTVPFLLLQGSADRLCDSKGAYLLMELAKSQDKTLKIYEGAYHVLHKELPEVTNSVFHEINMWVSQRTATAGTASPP
Test: 2-AG assay: MAGL inhibitory activity by hydrolysis of 2-arachidonoylglycerol to arachidonic acid, followed by mass spectrometry
Format: biochemical
Details: 15 min preincubation, 30 min reaction at RT, 8 μM 2-arachidonoylglycerol

SMILES	IC50 [nM]
N#Cc1cc(CC2CC3(C2)CN(C(=O)N2CC4(CCC(=O)N4)C2)C3)ccc1C(F)(F)F [Example 16, 5-[[2-(6-keto-2,5-diazaspiro[3.4]octane-2-carbonyl)-2-azaspiro[3.3]heptan-6-yl]methyl]-2-(trifluoromethyl)benzoni-trile]	0.09
O=C1NC2(CO1)CN(C(=O)N1CC3(CCC(Cc4ccc(C(F)(F)F)nc4)CC3)C1)C2 [Example 101, 2-[7-[[6-(trifluoromethyl)-3-pyridyl]methyl]-2-azaspiro[3.5]nonane-2-carbonyl]-7-oxa-2,5-diazaspiro[3.4]octan-6-one]	0.18
N=[S@@](=O)(c1ccc(CC2CC3(C2)CN(C(=O)N2CC4(COC(=O)N4)C2)C3)cc1)C(F)(F)F [Example 358, 2-[6-[4-(trifluoromethylsulfoni-midoyl)benzyl]-2-azaspiro[3.3]heptane-2-carbonyl]-7-oxa-2,5-diazaspiro[3.4]octan-6-one]	0.26
O=C1NC2(CO1)CN(C(=O)N1CC3(CC(c4ccc(C(F)(F)F)nc4)C3)C1)C2 [Example 79, 2-[6-[6-(trifluoromethyl)-3-pyridyl]-2-azaspiro[3.3]heptane-2-carbonyl]-7-oxa-2,5-diazaspiro[3.4]octan-6-one]	3.79
O=C1NC2(CO1)CN(C(=O)N1CC3(CCC(Oc4ncc(C(F)(F)F)cn4)CC3)C1)C2 [Example 123, 2-[7-[5-(trifluoromethyl)pyrimi-din-2-yl]oxy-2-azaspiro[3.5]nonane-2-carbonyl]-7-oxa-2,5-diazaspiro[3.4]octan-6-one]	4.43
CS(=O)(=O)c1cc(F)ccc1OC1CCC2(CC1)CN(C(=O)N1CC3(COC(=O)N3)C1)C2 [Example 99, 2-[7-(4-fluoro-2-mesyl-phenoxy)-2-azaspiro[3.5]nonane-2-carbonyl]-7-oxa-2,5-diazaspiro[3.4]octan-6-one]	3.09
CS(=O)(=O)c1cccc(CC2CC3(C2)CN(C(=O)N2CC4(COC(=O)N4)C2)C3)c1 [Example 33, 2-[6-(3-mesylbenzyl)-2-azaspiro[3.3]heptane-2-carbonyl]-7-oxa-2,5-diazaspiro[3.4]octan-6-one]	0.87
O=C1CCC2(CN(C(=O)N3CC4(CC(Cc5cc(C(F)(F)F)ncn5)C4)C3)C2)N1 [Example 312, 2-[6-[[6-(trifluoromethyl)pyrimi-din-4-yl]methyl]-2-azaspiro[3.3]heptane-2-carbonyl]-2,5-diazaspiro[3.4]octan-6-one]	54.9
O=C1CCC2(CN(C(=O)N3CC4(CC(Cc5ncc(C(F)(F)F)cn5)C4)C3)C2)N1 [Example 19, 2-[6-[[5-(trifluoromethyl)pyrimi-din-2-yl]methyl]-2-azaspiro[3.3]heptane-2-carbonyl]-2,5-diazaspiro[3.4]octan-6-one]	7
Cn1ncc(CC2CC3(C2)CN(C(=O)N2CC4(COC(=O)N4)C2)C3)c1C(F)(F)F [Example 352, 2-[6-[[1-methyl-5-(trifluoromethyl)pyrazol-4-yl]methyl]-2-azaspiro[3.3]heptane-2-carbonyl]-7-oxa-2,5-diazaspiro[3.4]octan-6-one]	0.15
O=C1NC2(CO1)CN(C(=O)N1CC3(CCN(Cc4cnc(C(F)(F)F)cn4)C3)C1)C2 [Example 157, 2-[7-[[5-(trifluoromethyl)pyrazin-2-yl]methyl]-2,7-diazaspiro[3.4]octane-2-carbonyl]-7-oxa-2,5-diazaspiro[3.4]octan-6-one]	9.86
O=C1NC2(CO1)CN(C(=O)N1CC3(CCC(Cc4ncc(F)cc4F)CC3)C1)C2 [Example 108, 2-[7-[(3,5-difluoro-2-pyridyl)methyl]-2-azaspiro[3.5]nonane-2-carbonyl]-7-oxa-2,5-diazaspiro[3.4]octan-6-one]	0.18
CS(=O)(=O)c1ccc(CC2CC3(C2)CN(C(=O)N2CC4(CCC(=O)N4)C2)C3)cc1C(F)(F)F [Example 39, 2-[6-[4-mesy1-3-(trifluoromethyl)benzyl]-2-azaspiro[3.3]heptane-2-carbonyl]-2,5-diazaspiro[3.4]octan-6-one]	2.38
O=C1NC2(CO1)CN(C(=O)N1CC3(CC(Cc4cnc(C(F)(F)F)cn4)C3)C1)C2 [Example 5, 2-[6-[[5-(trifluoromethyl)pyrazin-2-y1]methyl]-2-azaspiro[3.3]heptane-2-carbonyl]-7-oxa-2,5-diazaspiro[3.4]octan-6-one]	1.15
Cc1sc(CN2CC3(C2)CN(C(=O)N2CC4(CCC(=O)N4)C2)C3)nc1C(F)(F)F [Example 341, 2-[6-[[5-methyl-4-(trifluoromethyl)thiazol-2-yl]methyl]-2,6-diazaspiro[3.3]heptane-2-carbonyl]-2,5-diazaspiro[3.4]octan-6-one]	730
O=C1COCC2(CN(C(=O)N3CC4(CC(Cc5cncc(Cl)c5)C4)C3)C2)N1 [Example 172, 2-[6-[(5-chloro-3-pyridyl)methyl]-2-azaspiro[3.3]heptane-2-carbonyl]-8-oxa-2,5-diazaspiro[3.5]nonan-6-one]	38.2
O=C1NC2(CO1)CN(C(=O)N1CC3(CC[C@H](Oc4cnc(C(F)(F)F)cn4)C3)C1)C2 (single isomer, unassigned) [Example 100]	3.42

SMILES	IC50 [nM]
Cn1cc(CC2CC3(C2)CN(C(=O)N2CC4(COCC(=O)N4)C2)C3)c(C(F)(F)F)n1 [Example 370, 2-[6-[[1-methyl-3-(trifluoromethyl)pyrazol-4-yl]methyl]-2-azaspiro[3.3]heptane-2-carbonyl]-8-oxa-2,5-diazaspiro[3.5]nonan-6-one]	11.8
O=C1NC2(CO1)CN(C(=O)N1CC3(CN(Cc4cc(F)cc(F)c4)C3)C1)C2 [Example 153, 2-[6-(3,5-difluorobenzyl)-2,6-diazaspiro[3.3]heptane-2-carbonyl]-7-oxa-2,5-diazaspiro[3.4]octan-6-one]	4.75
O=C1COCC2(CN(C(=O)N3CC4(CCN(Cc5cccc(S(=O)(=O)C(F)(F)F)c5)CC4)C3)C2)N1 [Example 134, 2-[7-(3-triflylbenzyl)-2,7-diazaspiro[3.5]nonane-2-carbonyl]-8-oxa-2,5-diazaspiro[3.5]nonan-6-one]	19.1
CS(=O)(=O)c1ccc(C[C@@H]2CCC3(C2)CN(C(=O)N2CC4(COCC(=O)N4)C2)C3)cc1 (single isomer, unassigned) [Example 73]	80.2
O=C1CCC2(CN(C(=O)N3CC4(CC(Oc5nc(C(F)(F)F)cs5)C4)C3)C2)N1 [Example 308, 2-[6-[4-(trifluoromethyl)thiazol-2-yl]oxy-2-azaspiro[3.3]heptane-2-carbonyl]-2,5-diazaspiro[3.4]octan-6-one]	49
O=C1COCC2(CN(C(=O)N3CC4(CC(Cc5cc(F)cc(C(F)(F)F)c5)C4)C3)C2)N1 [Example 142]	0.45
O=C1CCC2(CN(C(=O)N3CC4(CC(Cc5ccnc(C(F)(F)F)n5)C4)C3)C2)N1 [Example 314, 2-[6-[[2-(trifluoromethyl)pyrimi-din-4-yl]methyl]-2-azaspiro[3.3]heptane-2-carbonyl]-2,5-diazaspiro[3.4]octan-6-one]	8.62
O=C1COCC2(CN(C(=O)N3CC4(CC(Cc5ncc(F)cc5F)C4)C3)C2)N1 [Example 371, 2-[6-[(3,5-difluoro-2-pyridyl)methyl]-2-azaspiro[3.3]heptane-2-carbonyl]-8-oxa-2,5-diazaspiro[3.5]nonan-6-one]	9.04
O=C1CCC2(CN(C(=O)N3CC4(CN(Cc5cnc(C(F)(F)F)s5)C4)C3)C2)N1 [Example 315, 2-[6-[[2-(trifluoromethyl)thiazol-5-yl]methyl]-2,6-diazaspiro[3.3]heptane-2-carbonyl]-2,5-diazaspiro[3.4]octan-6-one]	206
O=C1NC2(CO1)CN(C(=O)N1CC3(CC(NCc4ccc(C(F)(F)F)cc4F)C3)C1)C2 [Example 94]	1.08
O=C1COCC2(CN(C(=O)N3CC4(CN(Cc5ccc(S(=O)(=O)C(F)(F)F)cc5)C4)C3)C2)N1 [Example 229, 2-[6-[[4-(trifluoromethylsulfonyl)phenyl]methyl]-2,6-diazaspiro[3.3]heptane-2-carbonyl]-8-oxa-2,5-diazaspiro[3.5]nonan-6-one]	78.4
O=C1CCC2(CN(C(=O)N3CC4(CC[C@H](Cc5cccc(S(=O)(=O)C(F)(F)F)c5)C4)C3)C2)N1 [Example 223, 2-[(6R)-6-[[3-(trifluoromethylsulfonyl)phenyl]methyl]-2-azaspiro[3.4]octane-2-carbonyl]-2,5-diazaspiro[3.4]octan-6-one]	0.96
O=C1NC2(CO1)CN(C(=O)N1CC3(CCC(Nc4ccc(C(F)(F)F)cn4)CC3)C1)C2 [Example 95, 2-[7-[[5-(trifluoromethyl)-2-pyridyl]amino]-2-azaspiro[3.5]nonane-2-carbonyl]-7-oxa-2,5-diazaspiro[3.4]octan-6-one]	0.37
N#Cc1cc(C(F)(F)F)ncc1O[C@H]1CCC2(C1)CN(C(=O)N1CC3(COC(=O)N3)C1)C2 [Example 209, 5-[[(6S)-2-(6-oxo-7-oxa-2,5-diazaspiro[3.4]octane-2-carbonyl)-2-azaspiro[3.4]octan-6-yl]oxy]-2-(trifluoromethyl)pyridine-4-carbonitrile]	6.28
O=C1NC2(CO1)CN(C(=O)N1CC3(CC(Oc4ccc(C(F)(F)F)nn4)C3)C1)C2 [Example 76, 2-[6-[6-(trifluoromethyl)pyrida-zin-3-yl]oxy-2-azaspiro[3.3]heptane-2-carbonyl]-7-oxa-2,5-diazaspiro[3.4]octan-6-one]	8.33
N=[S@](=O)(c1ccc(CC2CC3(C2)CN(C(=O)N2CC4(CCC(=O)N4)C2)C3)cc1)C(F)(F)F [Example 283, 2-[6-[[4-(trifluoromethylsulfoni-midoyl)phenyl]methyl]-2-azaspiro[3.3]heptane-2-carbonyl]-2,5-diazaspiro[3.4]octan-6-one]	0.62
